# From patent EP1714646A1, “Pharmaceutical composition containing bakuchiol for treating osteoporosis in women” (Sinphar Pharmaceutical Co., Ltd., priority 2005, dated 2006)
# Legend:
# [1] = tested on: osteoporosis caused by estrogen deficiency; assay: Ovariectomized rat osteoporosis model: bone histomorphometry and apparent bone density; format: in vivo, female Wistar rats
# Description: The purpose of this example is to show the potency of bakuchiol in treating osteoporosis, wherein ovary of a female rat is removed to stimulate osteoporosis caused by estrogen deficiency.
# The female Wistar rats of 16 weeks old (unless specified in the other experiment description) were obtained from the stock reared by the Animal breeding center, National Scientific Council in Taipei. These rats were grouped by weights matched in order to distribute the physiological response variation from rats evenly into each group. These rats were grouping as follows: • Baseline group fed with no drug added food (n=8) • Sham operation group fed with no drug added food (Sham) (n=10) • Ovariectomy operation group fed with no drug added food (OVX) (n=8) • Ovariectomy operation group fed with Drug A (5 mg/kg) added food (OVX+A) (n=9) • Ovariectomy operation group fed with Drug B (15 mg/kg) added food (OVX+B) (n=9)
# Ovariectomy (removal of ovaries) operation: Ovariectomy was induced using a protocol similar to that described by Wronski et al (Wronski et al, Endocrinology, 123 (2), 681-686 ([…]))
# During the experiments, the rats were housed in hanging grid cages in groups of two at 21°C with a 12 hours dark cycle. Food (Rat-mouse diet III, adequate in 1 % of calcium content and 1.2 % of phosphate content, Purina, USA) was administered by paired feeding between the experimental and control groups. Pair-feeding was carried out by calculating the average amount of food intake in the Sham group. So give the same amount of food to the OVX , OVX+A (5 mg/kg), OVX+B (15 mg/kg) group animals the following day. These animals were fed with a period of two months except for the baseline group which were killed on the very day of doing ovariectomy or sham operation. Rats of OVX+A and OVX+B groups were fed with the usual food chuck but added certain amount of compound A and B in it respectively. Water was given ad libitum to all rats.
# The test drug was weighted according to dose of 5 mg/kg and 15 mg/kg, and added into the ususal food chuck powder and mixed with 10% starch paste. After fully mixed, these chuck powder were made into mass manually and dried by air flow oven. The food with added drug to rats was performed by single blind method.
# These labeling and bone histomorphometry assessment were done based on standard procedure in bone research (Lin et al, Calcif. Tissue Int., 67, 373-377 (2000)). […] Seven µm thick unstained sections were prepared for fluorescent microscopy and assessed with program Osteomeasure (3.0 version, Atlanta, USA). […]
# The whole tibia and femur were stripped off attached muscles and ligaments after sacrifice. […] The weight of bone measured in the air was marked as W-air. […] The apparent bone density was calculated as [W-air/(W-air minus W-water)] […]
# [2] = tested on: MDA-MB231; assay: Cytotoxicity assay (CCK-8), MDA-MB231; format: cell-based, human; conditions: MDA-MB231 (estrogen receptor negative), 48 hours incubation
# Description: (§1) Materials: DMEM (medium), RPMI (medium), L-glutamine, penicillin, streptomycin and FBS (fetal bovine serum) were obtained from Gibco (NY, USA). Culture plasticware was purchased from Coming (MA, USA). […] All other chemicals used were of reagent grade and were purchased from Sigma or E. Merck (Germany).
# (§2) Cell lines and cell cultures: The human breast cancer cell lines T47D and MDA-MB231 were obtained from American Type Culture Collection (ATCC). Of both cancer cells, T47D is estrogen receptor positive, and MDA-MB231 is estrogen receptor negative. Cells were cultured at 37°C in RPMI medium containing 10% charcoal-dextran stripped fetal bovine serum for T47D cells and in DMEM medium containing 10% charcoal-dextran stripped fetal bovine serum for MDA-MB231 cells with 5% CO2. The cell proliferation was determined by counting the viable cells with trypan blue exclusion.
# (§3) Cytotoxicity assay: Dispense 198 µl of cell suspension (20,000 cells for T47D per well and 10,000 cell for MDA-MB231 per well) in a 96-well plate and pre-incubate the plate for 24 hours in an incubator at 37°C with humidified 5% CO2. […] After plate was incubated for 48 hours in the incubator, media were aspirated of and new media (100 µl) were added and incubated for more 1 hour. […] Measure the absorbance at 450 nm using a ELISA reader. […]
# [3] = tested on: T47D; assay: Cytotoxicity assay (CCK-8), T47D; format: cell-based, human; conditions: T47D (estrogen receptor positive), 48 hours incubation
# Description: as §1, §2, §3
smiles,measurement,setting,value
"C=C[C@@](C)(/C=C/c1ccc(O)cc1)CCC=C(C)C [Bakuchiol, bakuchiol]",bone volume of proximal tibia,"[1]; OVX+A (5 mg/kg) and OVX+B (15 mg/kg) in food, two months, vs OVX group, p < 0.001, Figure 1",increase
same,"erosion surface (ES/BS,%) of proximal tibia","[1]; OVX+A (5 mg/kg) and OVX+B (15 mg/kg) in food, two months, vs OVX group, p < 0.001, Figure 3",inhibition of bone erosion
same,bone apparent density of tibia,"[1]; OVX+A (5 mg/kg) and OVX+B (15 mg/kg) in food, two months, vs OVX group, p < 0.05, Figure 2",increase
same,therapeutic effect on osteoporosis,"[1]; ovariectomized female rat, low dose (5 mg/kg)",possess a therapeutic effect on osteoporosis by inhibiting the bone resorption
same,50% inhibition of cell growth concentrations of test compounds (IC50),[2],0.62 μg/cc
same,50% inhibition of cell growth concentrations of test compounds (IC50),[3],5.00 μg/cc
